The NIST ThermoML archive (doi:10.1021/je060382+)
Values joined by “and” are separate entries in the source; they are usually repeats but may differ in a detail not shown here. Identical values can stand only once. Numbers after ± are expanded uncertainties.

Tests used:
[1] = Liquid; for viscosity: Falling or rolling sphere viscometry
[2] = refractive index (Na D-line) (dimensionless); settings: 293.1 K; 101.33 kPa; Liquid; Standard Abbe refractometry

CC(C)CCCCCCCOC(=O)c1ccccc1C(=O)OCCCCCCCC(C)C
mass density ([1]; 273.15 K, 101.33 kPa): 980.73 ± 0.45 kg/m3 and 980.75 ± 0.11 kg/m3 | viscosity ([1]; 273.15 K, 101.33 kPa): 627.6 ± 56 mPa·s and 664.5 ± 60 mPa·s | mass density ([1]; 278.15 K, 101.33 kPa): 977.12 ± 0.12 kg/m3 | viscosity ([1]; 278.15 K, 101.33 kPa): 393.5 ± 30 mPa·s and 410.8 ± 32 mPa·s and 410.5 ± 32 mPa·s | mass density ([1]; 283.15 K, 101.33 kPa): 973.48 ± 0.46 kg/m3 and 973.49 ± 0.12 kg/m3 | viscosity ([1]; 283.15 K, 101.33 kPa): 255.2 ± 17 mPa·s and 266.8 ± 18 mPa·s | mass density ([1]; 288.15 K, 101.33 kPa): 969.89 ± 0.12 kg/m3 | viscosity ([1]; 288.15 K, 101.33 kPa): 170.9 ± 9.8 mPa·s and 178.6 ± 10 mPa·s | mass density ([1]; 293.1 K, 101.33 kPa, Vibrating tube method): 967.6 ± 6.5 kg/m3 | mass density ([1]; 293.15 K, 101.33 kPa): 966.37 ± 0.47 kg/m3 and 966.38 ± 0.13 kg/m3 and 966.37 ± 0.13 kg/m3 | viscosity ([1]; 293.15 K, 101.33 kPa): 123.5 ± 6.3 mPa·s [middle of 5 runs] | viscosity ([1]; 293.15 K, 19400 kPa): 202.4 ± 12 mPa·s | viscosity ([1]; 293.15 K, 39700 kPa): 335 ± 25 mPa·s | viscosity ([1]; 293.15 K, 59500 kPa): 534.5 ± 45 mPa·s | viscosity ([1]; 293.15 K, 103600 kPa): 1435.6 ± 160 mPa·s | viscosity ([1]; 293.15 K, 118200 kPa): 1981.5 ± 250 mPa·s | viscosity ([1]; 293.15 K, 118900 kPa): 2033.8 ± 260 mPa·s | viscosity ([1]; 293.15 K, 159600 kPa): 4719.2 ± 720 mPa·s | mass density ([1]; 298.15 K, 101.33 kPa): 962.83 ± 0.47 kg/m3 and 962.84 ± 0.13 kg/m3 | viscosity ([1]; 298.15 K, 101.33 kPa): 87.7 ± 4 mPa·s and 84.1 ± 3.8 mPa·s and 88.4 ± 4 mPa·s | viscosity ([1]; 298.15 K, 25400 kPa): 165.5 ± 9.3 mPa·s | viscosity ([1]; 298.15 K, 50700 kPa): 300.2 ± 21 mPa·s | viscosity ([1]; 298.15 K, 75500 kPa): 525 ± 44 mPa·s | viscosity ([1]; 298.15 K, 100600 kPa): 904.7 ± 89 mPa·s | mass density ([1]; 303.15 K, 101.33 kPa): 959.31 ± 0.48 kg/m3 and 959.29 ± 0.48 kg/m3 and 959.3 ± 0.14 kg/m3 | viscosity ([1]; 303.15 K, 101.33 kPa): 65 ± 2.8 mPa·s [middle of 4 runs] | viscosity ([1]; 308.15 K, 101.33 kPa): 48.9 ± 2.1 mPa·s [middle of 4 runs] | viscosity ([1]; 313.15 K, 100 kPa): 37.6 ± 3.7 mPa·s and 36.8 ± 3.8 mPa·s | mass density ([1]; 313.15 K, 101.33 kPa): 952.2 ± 0.49 kg/m3 and 952.21 ± 0.14 kg/m3 | viscosity ([1]; 313.15 K, 101.33 kPa): 37.5 ± 1.6 mPa·s [middle of 4 runs] | viscosity ([1]; 313.15 K, 700 kPa): 38.3 ± 1.8 mPa·s | viscosity ([1]; 313.15 K, 25000 kPa): 65.4 ± 6.3 mPa·s and 63.9 ± 5.3 mPa·s | viscosity ([1]; 313.15 K, 25800 kPa): 66 ± 2.9 mPa·s | viscosity ([1]; 313.15 K, 50000 kPa): 109.4 ± 12 mPa·s and 107 ± 12 mPa·s | viscosity ([1]; 313.15 K, 50600 kPa): 110.3 ± 5.4 mPa·s | viscosity ([1]; 313.15 K, 75500 kPa): 181 ± 10 mPa·s | viscosity ([1]; 313.15 K, 100000 kPa): 290 ± 47 mPa·s and 271 ± 44 mPa·s and 273 ± 44 mPa·s | viscosity ([1]; 313.15 K, 100300 kPa): 291.6 ± 20 mPa·s | viscosity ([1]; 313.15 K, 125100 kPa): 463.2 ± 37 mPa·s | viscosity ([1]; 313.15 K, 150400 kPa): 732.6 ± 70 mPa·s | viscosity ([1]; 313.15 K, 175800 kPa): 1143.6 ± 120 mPa·s | viscosity ([1]; 313.15 K, 197600 kPa): 1680 ± 200 mPa·s | viscosity ([1]; 313.15 K, 200000 kPa): 1580 ± 250 mPa·s and 1665 ± 260 mPa·s and 1530 ± 300 mPa·s | viscosity ([1]; 313.15 K, 227900 kPa): 2671.7 ± 360 mPa·s | viscosity ([1]; 313.15 K, 252000 kPa): 3750 ± 770 mPa·s and 3932.3 ± 580 mPa·s | viscosity ([1]; 313.15 K, 300000 kPa): 8110 ± 1700 mPa·s and 7270 ± 1600 mPa·s | viscosity ([1]; 313.15 K, 400000 kPa): 36300 ± 9800 mPa·s and 33700 ± 9100 mPa·s | viscosity ([1]; 313.15 K, 500000 kPa): 168000 ± 53000 mPa·s and 158000 ± 49000 mPa·s | viscosity ([1]; 313.15 K, 600000 kPa): 782000 ± 280000 mPa·s and 694000 ± 250000 mPa·s | viscosity ([1]; 313.15 K, 700000 kPa): 3820000 ± 1.6e+06 mPa·s and 3410000 ± 1.4e+06 mPa·s | viscosity ([1]; 313.15 K, 800000 kPa): 2.36e+07 ± 1.1e+07 mPa·s and 1.98e+07 ± 8.7e+06 mPa·s | mass density ([1]; 323.15 K, 101.33 kPa): 945.12 ± 0.5 kg/m3 and 945.13 ± 0.15 kg/m3 | viscosity ([1]; 323.15 K, 101.33 kPa): 23 ± 1 mPa·s and 23.7 ± 1 mPa·s | mass density ([1]; 333.15 K, 101.33 kPa): 938.05 ± 0.51 kg/m3 and 938.07 ± 0.16 kg/m3 | viscosity ([1]; 333.15 K, 101.33 kPa): 15.9 ± 0.7 mPa·s [middle of 4 runs] | viscosity ([1]; 338.15 K, 100 kPa): 13.2 ± 1.3 mPa·s and 13.08 ± 1.4 mPa·s | viscosity ([1]; 338.15 K, 101.33 kPa): 13.3 ± 0.6 mPa·s and 13.2 ± 0.5 mPa·s and 13 ± 0.5 mPa·s | viscosity ([1]; 338.15 K, 500 kPa): 13.3 ± 0.6 mPa·s | viscosity ([1]; 338.15 K, 25000 kPa): 20.2 ± 2.3 mPa·s | viscosity ([1]; 338.15 K, 30500 kPa): 22.7 ± 1 mPa·s | viscosity ([1]; 338.15 K, 50000 kPa): 30.7 ± 3.8 mPa·s and 31.1 ± 3.8 mPa·s | viscosity ([1]; 338.15 K, 60700 kPa): 37.8 ± 1.6 mPa·s | viscosity ([1]; 338.15 K, 90600 kPa): 60.9 ± 2.9 mPa·s | viscosity ([1]; 338.15 K, 99500 kPa): 70.9 ± 3.4 mPa·s | viscosity ([1]; 338.15 K, 100000 kPa): 67.7 ± 10 mPa·s and 69.4 ± 9.8 mPa·s | viscosity ([1]; 338.15 K, 120500 kPa): 96.3 ± 5 mPa·s | viscosity ([1]; 338.15 K, 150100 kPa): 149.6 ± 8.8 mPa·s | viscosity ([1]; 338.15 K, 180400 kPa): 229.2 ± 16 mPa·s | viscosity ([1]; 338.15 K, 200000 kPa): 291 ± 56 mPa·s and 286 ± 53 mPa·s and 299 ± 54 mPa·s | viscosity ([1]; 338.15 K, 200600 kPa): 307.8 ± 23 mPa·s | viscosity ([1]; 338.15 K, 250700 kPa): 614.9 ± 58 mPa·s | viscosity ([1]; 338.15 K, 275600 kPa): 856.5 ± 85 mPa·s | viscosity ([1]; 338.15 K, 300000 kPa): 1131 ± 260 mPa·s [middle of 4 runs] | viscosity ([1]; 338.15 K, 301000 kPa): 1203.7 ± 130 mPa·s | viscosity ([1]; 338.15 K, 321800 kPa): 1571 ± 180 mPa·s | viscosity ([1]; 338.15 K, 352700 kPa): 2381 ± 310 mPa·s | viscosity ([1]; 338.15 K, 370500 kPa): 2998.7 ± 410 mPa·s | viscosity ([1]; 338.15 K, 394000 kPa): 3890 mPa·s | viscosity ([1]; 338.15 K, 394400 kPa): 4005.5 ± 590 mPa·s | viscosity ([1]; 338.15 K, 500000 kPa): 14200 ± 5700 mPa·s and 13100 ± 5400 mPa·s | viscosity ([1]; 338.15 K, 1000000 kPa): 7420000 ± 3e+06 mPa·s and 6141000 ± 2.5e+06 mPa·s | mass density ([1]; 343.15 K, 101.33 kPa): 930.99 ± 0.53 kg/m3 and 931.01 ± 0.16 kg/m3 | viscosity ([1]; 343.15 K, 101.33 kPa): 11.2 ± 0.5 mPa·s [middle of 4 runs] | viscosity ([1]; 348.15 K, 101.33 kPa): 9.63 ± 0.4 mPa·s and 9.65 ± 0.4 mPa·s | viscosity ([1]; 348.15 K, 11100 kPa): 11.7 ± 0.5 mPa·s | viscosity ([1]; 348.15 K, 26500 kPa): 15.1 ± 0.6 mPa·s | viscosity ([1]; 348.15 K, 52600 kPa): 22.9 ± 1 mPa·s | viscosity ([1]; 348.15 K, 78900 kPa): 33.7 ± 1.4 mPa·s | viscosity ([1]; 348.15 K, 81000 kPa): 35 ± 1.5 mPa·s | viscosity ([1]; 348.15 K, 105700 kPa): 49.67 ± 2.1 mPa·s | viscosity ([1]; 348.15 K, 124200 kPa): 65.18 ± 2.8 mPa·s | viscosity ([1]; 348.15 K, 125700 kPa): 66 ± 2.8 mPa·s | viscosity ([1]; 348.15 K, 149800 kPa): 92 ± 4.2 mPa·s | viscosity ([1]; 348.15 K, 175700 kPa): 130.3 ± 6.7 mPa·s | viscosity ([1]; 348.15 K, 202300 kPa): 186.52 ± 11 mPa·s | viscosity ([1]; 348.15 K, 225400 kPa): 250 ± 16 mPa·s | viscosity ([1]; 348.15 K, 274700 kPa): 467.3 ± 38 mPa·s | viscosity ([1]; 348.15 K, 275700 kPa): 472.3 ± 38 mPa·s | viscosity ([1]; 348.15 K, 324900 kPa): 866.8 ± 85 mPa·s | viscosity ([1]; 348.15 K, 372500 kPa): 1541.5 ± 180 mPa·s | mass density ([1]; 353.15 K, 101.33 kPa): 923.95 ± 0.54 kg/m3 and 923.98 ± 0.17 kg/m3 and 923.97 ± 0.17 kg/m3 | viscosity ([1]; 353.15 K, 101.33 kPa): 8.12 ± 0.34 mPa·s and 8.35 ± 0.34 mPa·s | mass density ([1]; 363.15 K, 101.33 kPa): 916.91 ± 0.55 kg/m3 and 916.94 ± 0.18 kg/m3 | viscosity ([1]; 373.15 K, 100 kPa): 4.67 ± 0.59 mPa·s and 4.7 ± 0.59 mPa·s | viscosity ([1]; 373.15 K, 25000 kPa): 6.73 ± 0.88 mPa·s and 6.86 ± 0.69 mPa·s | viscosity ([1]; 373.15 K, 50000 kPa): 9.66 ± 1.3 mPa·s and 9.77 ± 1.4 mPa·s | viscosity ([1]; 373.15 K, 100000 kPa): 18 ± 2.9 mPa·s and 18.5 ± 3 mPa·s | viscosity ([1]; 373.15 K, 200000 kPa): 56.6 ± 13 mPa·s and 57.8 ± 12 mPa·s | viscosity ([1]; 373.15 K, 300000 kPa): 163 ± 52 mPa·s and 166 ± 50 mPa·s and 165 ± 50 mPa·s | viscosity ([1]; 373.15 K, 400000 kPa): 453 ± 200 mPa·s [middle of 4 runs] | refractive index [2]: 1.4849 ± 0.0012
